The target of the assay is T1, P2X7 receptor (Homo sapiens, UniProt Q99572).
T1 construct: endogenous in cells; host or cells: THP-1 cells differentiated with LPS and IFN-γ
T1 sequence (Q99572 1-595): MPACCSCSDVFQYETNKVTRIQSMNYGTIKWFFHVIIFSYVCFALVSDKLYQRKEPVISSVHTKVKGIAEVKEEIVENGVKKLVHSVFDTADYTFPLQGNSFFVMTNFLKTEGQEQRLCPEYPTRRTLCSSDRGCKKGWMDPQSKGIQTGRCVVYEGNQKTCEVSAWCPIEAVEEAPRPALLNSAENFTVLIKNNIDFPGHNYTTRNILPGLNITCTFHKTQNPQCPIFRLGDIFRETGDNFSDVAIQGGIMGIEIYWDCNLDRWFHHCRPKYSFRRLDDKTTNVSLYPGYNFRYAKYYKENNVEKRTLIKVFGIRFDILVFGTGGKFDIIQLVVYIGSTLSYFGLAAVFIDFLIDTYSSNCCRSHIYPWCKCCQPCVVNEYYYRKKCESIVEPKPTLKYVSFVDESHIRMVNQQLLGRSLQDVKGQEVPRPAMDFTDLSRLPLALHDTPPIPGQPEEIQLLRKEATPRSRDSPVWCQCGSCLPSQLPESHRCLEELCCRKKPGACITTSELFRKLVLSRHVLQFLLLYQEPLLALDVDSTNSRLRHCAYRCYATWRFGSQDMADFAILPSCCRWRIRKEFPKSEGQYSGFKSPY
In words: IL-1β release assay in differentiated THP-1 cells stimulated with BzATP (Example 9). The conditions noted are these: for inhibition at 0.1 µM: 0.1 μM concentration; for inhibition at 0.1 µM / inhibition at 0.3 µM: read-out: IL-1β % Inhib. @ 0.3 or 0.1 μM; for inhibition at 0.3 µM: 0.3 μM concentration; for pIC50: four parameter logistic fit, read-out: IL-1β IC50. It is filed as cell-based. The procedure:
The cells are then pretreated for 30 minutes with the compound of interest at the appropriate concentration in RPMI media containing 100 IU/mL penicillin, 100 ug/mL streptomycin. […] 30 uL of cell supernatant is then collected and IL-1β levels determined via ELISA (R&D systems Cat. # HSLB50) according to manufacturer's recommendations using the Tecan Safire plate reader. Background adjusted IL-1β levels of drug treated and non-treated cells are used to calculate the percent inhibition.
The compounds set forth in Table 1 were tested for activity in a cellular model as described herein. […] Measurements were made and IC50 values, presented in Table 2, below, were determined by fitting the data to a four parameter logistic equation using GraphPad Prism software (GraphPad Software, Inc). The equation may be expressed by the following formula:
Y=Bottom+(Top-Bottom)/(1+10̂((Log EC50−X)*HillSlope))
Where X is the logarithm of concentration, Y is the response and Y starts at Bottom and goes to Top with a sigmoid shape.

The structures appear in SMILES notation. pIC50: −log10 of the molar value.

As for `CCOC(=O)N1CCC(n2ccc3c(NC(=O)Cc4ccccc4C)cccc3c2=O)CC1` [ID 781], the inhibition at 0.1 µM lay within 0 to 25%.
For orientation: pIC50 means the IC50 on a negative log10 scale, so that one unit is a factor of ten. With `Cc1ncccc1-n1ccc2c(NC(=O)Cc3ccc(C(F)(F)F)cc3F)cccc2c1=O` [ID 865], the inhibition at 0.3 µM is over 76% and the negative logarithm of the IC50 (pIC50) was 7.12.
Turning to `Cc1cc(-n2ccc3c(NC(=O)c4cc5ccccc5o4)cccc3c2=O)no1` [ID 734], the inhibition at 0.1 µM was 0 to 25%.
As for `O=C(Cc1ccc(Cl)c(F)c1)Nc1cccc2c(=O)n(-c3cccnc3F)ccc12` [ID 873], the inhibition at 0.3 µM was over 76% and the pIC50 was 7.50.
The matching figures for `O=C(Cc1ccc(F)c(C(F)(F)F)c1)Nc1cccc2c(=O)n(-c3cccnc3F)ccc12` [ID 872]: over 76% and 7.52.
Regarding `CCOC(=O)N1CCC(n2ccc3c(NC(=O)CCc4ccc5c(c4)OCO5)cccc3c2=O)CC1` [ID 759], the inhibition at 0.1 µM was 0 to 25%.
The same measure, in the same setting: the figure for `CCOC(=O)N1CCC(n2ccc3c(NC(=O)c4ccc(C(C)(C)C)cc4)cccc3c2=O)CC1` [ID 773] is 26 to 50%.
For the compound `O=C(Cc1ccc(C(F)(F)F)c(F)c1)Nc1cccc2c(=O)n(C3CC3)ccc12` [ID 879], the inhibition at 0.3 µM is over 76% and the negative-log IC50 (pIC50) was 8.17.
Taken in the same sequence, the figures for `Cc1ccncc1-n1ccc2c(NC(=O)CC34CC5CC(CC(C5)C3)C4)cccc2c1=O` [ID 702] were over 76% and 9.75.
Consider `CCOC(=O)N1CCC(n2ccc3c(NC(=O)Cc4cc(OC)ccc4OC)cccc3c2=O)CC1` [ID 780], for which the inhibition at 0.1 µM is 0 to 25%.
In the case of `O=C(Cc1ccc(F)c(Cl)c1)Nc1cccc2c(=O)n(C3CC3)ccc12` [ID 881], the inhibition at 0.3 µM is over 76% and the pIC50 is 8.36.
Regarding `CCOC(=O)N1CCC(n2ccc3c(NC(=O)c4cc(Cl)ccc4Cl)cccc3c2=O)CC1` [ID 763], the inhibition at 0.1 µM fell in the range of 0 to 25%.
Same read-out and setting: then `Cc1ccc(C)c(C(=O)Nc2cccc3c(=O)n(-c4cc(C)on4)ccc23)c1` [ID 722], with 26 to 50%.
Consider `O=C(Cc1cccc(C(F)(F)F)c1F)Nc1cccc2c(=O)n(C3CN4CCC3CC4)ccc12` (stereo not shown) [ID 845], for which the inhibition at 0.3 µM was over 76% and the negative logarithm of the IC50 (pIC50) was 6.87.
Consider `CCOC(=O)N1CCC(n2ccc3c(NC(=O)C45CC6C[C@H](C4)C[C@@](O)(C6)C5)cccc3c2=O)CC1` [ID 796], for which the inhibition at 0.1 µM was 0 to 25%.
As to `O=C(CC1CCCCCC1)Nc1cccc2c(=O)n(C3CC3)ccc12` [ID 878], the inhibition at 0.3 µM was over 76% and the pIC50 is 8.65.
The matching figures for `O=C(CC12CC3CC(CC(C3)C1)C2)Nc1cccc2c(=O)n(-c3ccc(Oc4c(Cl)cccc4Cl)nc3)ccc12` [ID 713]: over 76% and 7.97.
With `Cc1ncccc1-n1ccc2c(NC(=O)[C@H](C)c3ccc(Cl)cc3)cccc2c1=O` [ID 863], the inhibition at 0.3 µM was over 76% and the pIC50 was 7.37.
`CCOC(=O)N1CCC(n2ccc3c(NC(=O)c4cccc(C)c4Cl)cccc3c2=O)CC1` [ID 808]: the inhibition at 0.1 µM lay in the range of 0 to 25%.
As for `O=C(Cc1ccc(Cl)c(Cl)c1)Nc1cccc2c(=O)n([C@@H]3CCNC3)ccc12` [ID 827], the inhibition at 0.3 µM was over 76% and the negative logarithm of the IC50 (pIC50) is 7.59.
`Cc1ncccc1-n1ccc2c(NC(=O)Cc3ccc(Cl)c(F)c3)cccc2c1=O` [ID 858]: the inhibition at 0.3 µM is over 76% and the pIC50 is 7.48.
Take `Cc1ncccc1-n1ccc2c(NC(=O)Cc3ccc(F)c(C(F)(F)F)c3)cccc2c1=O` [ID 860]: the inhibition at 0.3 µM is over 76% and the pIC50 is 7.86.
For the compound `Cc1cc(-n2ccc3c(NC(=O)Cc4ccccc4C)cccc3c2=O)no1` [ID 729], the inhibition at 0.1 µM was 0 to 25%.
For the compound `O=C(CC12CC3CC(CC(C3)C1)C2)Nc1cccc2c(=O)n(-c3cnc4ccccc4c3)ccc12` [ID 706], the inhibition at 0.3 µM was over 76% and the negative logarithm of the IC50 (pIC50) was 7.24.
The matching figures for `O=C(CC12CC3CC(CC(C3)C1)C2)Nc1cccc2c(=O)n(-c3ccc(N4CCOCC4)nc3)ccc12` [ID 709]: over 76% and 7.59.
On to `O=C(Cc1ccc(Cl)cc1F)Nc1cccc2c(=O)n(C3CCC3)ccc12` [ID 888], for which the inhibition at 0.3 µM was over 76% and the pIC50 was 7.84.
Taken in the same sequence, the figures for `O=C(CC1(O)CCCCCC1)Nc1cccc2c(=O)n([C@@H]3CCNC3)ccc12` [ID 837] were 51 to 75% and 6.56.
Consider `CCOC(=O)N1CCC(n2ccc3c(NC(=O)c4ccc(C)c(Cl)c4)cccc3c2=O)CC1` [ID 793], for which the inhibition at 0.1 µM lay in the range of 0 to 25%.
On to `CCOC(=O)N1CCC(n2ccc3c(NC(=O)Cc4ccc(C)cc4)cccc3c2=O)CC1` [ID 787], for which the inhibition at 0.1 µM is 0 to 25%.
Same read-out and setting: then `CCOC(=O)N1CCC(n2ccc3c(NC(=O)Cc4ccc(OC)c(OC)c4)cccc3c2=O)CC1` [ID 783], with 0 to 25%.
As to `O=C(CC12CC3CC(CC(C3)C1)C2)Nc1cccc2c(=O)n(-c3cc[nH]n3)ccc12` [ID 841], the inhibition at 0.3 µM is over 76% and the pIC50 is 9.53.
Taken in the same sequence, the figures for `O=C(CC1CCCCCC1)Nc1cccc2c(=O)n([C@H]3CCNC3)ccc12` [ID 824] were over 76% and 8.49.
The matching figures for `COc1ncccc1-n1ccc2c(NC(=O)CC34CC5CC(CC(C5)C3)C4)cccc2c1=O` [ID 710]: over 76% and 9.61.
The matching figures for `O=C(Cc1ccc(Cl)cc1F)Nc1cccc2c(=O)n(C3CN4CCC3CC4)ccc12` (stereo not shown) [ID 846]: over 76% and 6.79.
Consider `CC12CC3CC(C)(C1)CC(CC(=O)Nc1cccc4c(=O)n(-c5cccnc5)ccc14)(C3)C2` [ID 701], for which the inhibition at 0.3 µM was over 76% and the pIC50 is 8.49.
Taken in the same sequence, the figures for `Cc1ncccc1-n1ccc2c(NC(=O)[C@@H](C)c3ccc(Cl)cc3)cccc2c1=O` [ID 864] were over 76% and 6.96.
Regarding `O=C(Cc1ccc(Cl)c(C(F)(F)F)c1)Nc1cccc2c(=O)n([C@H]3CCNC3)ccc12` [ID 836], the negative-log IC50 (pIC50) was 7.80.
`CCOC(=O)N1CCC(n2ccc3c(NC(=O)Cc4ccccc4OCC)cccc3c2=O)CC1` [ID 805]: the inhibition at 0.1 µM lay within 0 to 25%.
`O=C(CC12CC3CC(CC(C3)C1)C2)Nc1cccc2c(=O)n(-c3ccc(Sc4cc(Cl)ccc4Cl)nc3)ccc12` [ID 707]: the inhibition at 0.3 µM is over 76% and the pIC50 was 8.79.
As to `CCOC(=O)N1CCC(n2ccc3c(NC(=O)c4cc(OC)cc(OC)c4)cccc3c2=O)CC1` [ID 769], the inhibition at 0.1 µM is 26 to 50%.
With `CC(C(=O)Nc1cccc2c(=O)n(C3CCNC3)ccc12)c1ccc(Cl)cc1` (stereo not shown) [ID 821], the inhibition at 0.3 µM was in the range of 51 to 75% and the pIC50 is 6.60.
The matching figures for `O=C(Cc1cccc(C(F)(F)F)c1F)Nc1cccc2c(=O)n(C3CC3)ccc12` [ID 885]: over 76% and 9.49.
On to `CCOC(=O)N1CCC(n2ccc3c(NC(=O)CCc4cccc(OC)c4)cccc3c2=O)CC1` [ID 753], for which the inhibition at 0.1 µM was in the range of 0 to 25%.
`O=C(Cc1ccc(Cl)c(Cl)c1)Nc1cccc2c(=O)n(C3CC3)ccc12` [ID 876]: the inhibition at 0.3 µM was over 76% and the negative logarithm of the IC50 (pIC50) was 7.82.
The matching figures for `Cc1ncccc1-n1ccc2c(NC(=O)Cc3ccc(Cl)c(Cl)c3)cccc2c1=O` [ID 869]: over 76% and 7.36.
Consider `Cc1cc(-n2ccc3c(NC(=O)c4cccc5c4OCCO5)cccc3c2=O)no1` [ID 736], for which the inhibition at 0.1 µM lay within 0 to 25%.
`O=C(Cc1cccc(C(F)(F)F)c1F)Nc1cccc2c(=O)n(-c3cccnc3F)ccc12` [ID 874]: the inhibition at 0.3 µM was over 76% and the pIC50 was 7.55.
As to `COc1ccc(OC)c(CC(=O)Nc2cccc3c(=O)n(-c4cc(C)on4)ccc23)c1` [ID 728], the inhibition at 0.1 µM was in the range of 0 to 25%.
`CC(C(=O)Nc1cccc2c(=O)n(-c3n[nH]cc3C#N)ccc12)c1ccc(Cl)c(C(F)(F)F)c1` (stereo not shown) [ID 840]: the inhibition at 0.3 µM is over 76% and the negative logarithm of the IC50 (pIC50) is 7.42.
The matching figures for `O=C(CC12CC3CC(CC(C3)C1)C2)Nc1cccc2c(=O)n(-c3ccc(Oc4ccccc4)nc3)ccc12` [ID 711]: over 76% and 9.14.
With `COc1ccc(CCC(=O)Nc2cccc3c(=O)n(-c4cc(C)on4)ccc23)cc1` [ID 725], the inhibition at 0.1 µM is 0 to 25%.
